The values that follow come from publication PMC9851200, “Multiparameter phenotypic screening for endogenous TFEB and TFE3 translocation identifies novel chemical series modulating lysosome function” (Autophagy, 2022).

What all share (details): PKIS2 primary screening
For data set [1], the system named is endogenous TFE3. Kind of data set: TFE3 nuclear translocation, immunocytochemistry high-content imaging. Format: cell-based.
For data set [2], the system named is SH-SY5Y cells. Kind of data set: Nuclear count from microscopy images (cellular growth and toxicity). Also: reference of the scale not given here.
The subject of data set [3] is SH-SY5Y cells.
Excerpt: The PKIS2 Library was supplied by The Structural Genomics Consortium at the University of North Carolina at Chapel Hill.
Data set [4] concerns endogenous TFEB. Nature of the data set: TFEB nuclear translocation, immunocytochemistry high-content imaging. Format: cell-based.
Data set [5] relates to SH-SY5Y cells. Nature of the data set: AK (adenylate kinase) release ToxiLight cytotoxicity assay. Also: reference of the scale not given here.

Read-outs that look alike come from different tables or passages of the source.
For DQ Intensity in this document: reference of the scale not given here.
For DQ Spot in this document: reference of the scale not given here.

Regarding `Cn1cncc1-c1cc2c(Nc3ccc(OCc4ccccc4)cc3)ncnc2cn1` [UNC10225035A], the TFE3 % in data set [1] worked out at 18.86%. Besides, the “Nuclear Count” value in data set [2] amounted to 109.40. The “DQ Intensity” value in data set [3] (DQ Red BSA intensity) turned out to be 110.55. Moreover, the “DQ Spot” value in data set [3] (DQ Red BSA spot count) is reported as 106.44. The compound further gave a TFEB % in data set [4] of 6.44%. This compound showed an AK in data set [5] of 76.24.

Turning to `COc1cc2nccc(Nc3ccc(OCc4ccc(NC(C)=O)cc4)cc3)c2cc1OC.Cl` [UNC10225233A], the TFE3 % in data set [1] worked out at 18.79%. Besides, the “Nuclear Count” value in data set [2] was determined as 125.55. Besides, the “DQ Intensity” value in data set [3] (DQ Red BSA intensity) stood at 120.40. The “DQ Spot” value in data set [3] (DQ Red BSA spot count) came out at 99.45. The compound further gave a TFEB % in data set [4] of 5.84%. The same compound gave an AK in data set [5] of 100.23.

`COc1cccc(NC(=O)NC2CCN(c3ccnc(Nc4cc(OC)c(OC)c(OC)c4)n3)C2)c1` (stereo not drawn) [GSK1379763]: the TFE3 % in data set [1] came out at 18.80%. For the same compound, the “Nuclear Count” value in data set [2] came to 90.02. Also, the “DQ Intensity” value in data set [3] (DQ Red BSA intensity) was 128.42. For the same compound, the “DQ Spot” value in data set [3] (DQ Red BSA spot count) is given as 124.42. In data set [4], this compound displayed a TFEB % of 4.72%. Also, the AK in data set [5] turned out to be 111.80.

`O=c1cc(N2CCOCC2)nc2n(Cc3ccccc3F)ccn12` [UNC10225231A] gave a TFE3 % in data set [1] of 8.12%. Moreover, the “Nuclear Count” value in data set [2] is 97.25. In data set [3], the “DQ Intensity” value is reported as 110.36 and the “DQ Spot” value came out at 111.39. This compound also registered a TFEB % in data set [4] of 4.37%. Further, the AK in data set [5] is 121.63.

In turn, `COC(=O)Nc1nc2ccc(Oc3ccc(NC(=O)Nc4cc(C(F)(F)F)ccc4F)cn3)cc2[nH]1` [GW681170] gave a TFE3 % in data set [1] of 18.59%. For the same compound, the “Nuclear Count” value in data set [2] stood at 116.32. In addition, the “DQ Intensity” value in data set [3] (DQ Red BSA intensity) came out at 102.17. In data set [3] (DQ Red BSA spot count), the “DQ Spot” value is on record as 112.93. The compound also yielded a TFEB % in data set [4] of 3.10%. In data set [5], the AK is recorded as 96.18.

In data set [1], `Nc1ncnc2c1ncn2-c1cccc2ccccc12` [UNC10225410A] showed a TFE3 % of 8.71%. Also, in data set [2], the “Nuclear Count” value turned out to be 88.30. In data set [3], the “DQ Intensity” value was determined as 80.92 and the “DQ Spot” value is given as 97.35. The compound further yielded a TFEB % in data set [4] of 7.46%. For the same compound, the AK in data set [5] is 106.56.

In data set [1], `c1ccc(-c2cc(-c3c[nH]nc3-c3ccccn3)ccn2)cc1` [UNC10225169A] returned a TFE3 % of 6.57%. Besides, the “Nuclear Count” value in data set [2] amounted to 139.75. Further, the “DQ Intensity” value in data set [3] (DQ Red BSA intensity) was 83.52. Besides, the “DQ Spot” value in data set [3] (DQ Red BSA spot count) is 97.79. Moreover, the TFEB % in data set [4] came out at 2.50%. For the same compound, in data set [5], the AK is 72.24.

As for `O=C(Nc1n[nH]c2cc(-c3ccccc3F)ccc12)C1CC1` [SB-733371], the TFE3 % in data set [1] amounted to 7.51%. For the same compound, in data set [2], the “Nuclear Count” value stood at 133.33. For the same compound, in data set [3] (DQ Red BSA intensity), the “DQ Intensity” value was found to be 129.64. Besides, the “DQ Spot” value in data set [3] (DQ Red BSA spot count) is 114.49. This compound also showed a TFEB % in data set [4] of 4.96%. Further, the AK in data set [5] amounted to 88.17.

On to `COc1ccc(Nc2nccc(N3CCC(NC(=O)c4cccc(NC(C)=O)c4)C3)n2)cc1` (stereo not drawn) [GSK1379732], for which, in data set [1], the TFE3 % turned out to be 6.22%. In addition, the “Nuclear Count” value in data set [2] stood at 135.73. Also, the “DQ Intensity” value in data set [3] (DQ Red BSA intensity) was 114.89. Further, in data set [3] (DQ Red BSA spot count), the “DQ Spot” value is reported as 106.49. The same compound had a TFEB % in data set [4] of 5.92%. In data set [5], the AK is given as 83.81.

Consider `Cn1cc(-c2ccc3c(c2)CCN3C(=O)Cc2cccc(F)c2)c2c(N)ncnc21` [UNC10225297A], for which, in data set [1], the TFE3 % came out at 15.69%. Further, in data set [2], the “Nuclear Count” value is recorded as 104.97. Moreover, in data set [3], the “DQ Intensity” value is recorded as 118.40 and the “DQ Spot” value worked out at 112.51. Further, in data set [4], the TFEB % was determined as 6.82%. This compound yielded an AK in data set [5] of 109.17.

The compound `CN(C)CCNS(=O)(=O)c1ccc(-c2ccnc3[nH]ccc23)cc1` [UNC10225452A] showed a TFE3 % in data set [1] of 16.94%. For the same compound, the “Nuclear Count” value in data set [2] came to 78.72. Moreover, the “DQ Intensity” value in data set [3] (DQ Red BSA intensity) was 125.57. The “DQ Spot” value in data set [3] (DQ Red BSA spot count) was determined as 113.31. In data set [4], the TFEB % is recorded as 4.89%. The compound also yielded an AK in data set [5] of 114.11.

Regarding `Cl.c1ccc(Cn2ccc3cc(Nc4ncnc5ccccc45)ccc32)cc1` [UNC10225488A], in data set [1], the TFE3 % worked out at 8.10%. In addition, the “Nuclear Count” value in data set [2] stood at 128.88. Also, in data set [3] (DQ Red BSA intensity), the “DQ Intensity” value came out at 101.44. Also, in data set [3] (DQ Red BSA spot count), the “DQ Spot” value came to 98.20. Besides, the TFEB % in data set [4] came out at 3.41%. The compound also displayed an AK in data set [5] of 113.68.

In the case of `COc1cc(Nc2nccc(N3CCC(NC(=O)Nc4cccc(C(C)=O)c4)C3)n2)cc(OC)c1OC` (stereo not drawn) [GSK1379753], the TFE3 % in data set [1] is recorded as 10.72%. Besides, in data set [2], the “Nuclear Count” value worked out at 116.36. The “DQ Intensity” value in data set [3] (DQ Red BSA intensity) is 96.48. In data set [3] (DQ Red BSA spot count), the “DQ Spot” value is reported as 93.76. In data set [4], this compound showed a TFEB % of 2.90%. In data set [5], this compound registered an AK of 112.38.

In the case of `CC(C)(C)n1cnc2c(N)ncnc21` [UNC10225362A], in data set [1], the TFE3 % is 7.46%. Besides, the “Nuclear Count” value in data set [2] stood at 45.84. In data set [3], the “DQ Intensity” value is given as 122.93 and the “DQ Spot” value is 124.24. This compound also gave a TFEB % in data set [4] of 5.16%. This compound registered an AK in data set [5] of 102.90.
